Reference: patent US9586963B2 (GENFIT, priority 2011, dated 2017)

Columns and labels:
Rev-Erb alpha = molecular target: T1, Rev-Erb alpha (Homo sapiens, UniProt P20393); test: M2H (mammalian two-hybrid) cellular activation assay of Rev-Erb alpha; type: cell-based; details: M2H assay, HEK293 cells; for EC50: Gal4-Rev-Erb alpha / VP16-NCoR, luciferase reporter
T1 sequence (P20393 284-614 limits assumed): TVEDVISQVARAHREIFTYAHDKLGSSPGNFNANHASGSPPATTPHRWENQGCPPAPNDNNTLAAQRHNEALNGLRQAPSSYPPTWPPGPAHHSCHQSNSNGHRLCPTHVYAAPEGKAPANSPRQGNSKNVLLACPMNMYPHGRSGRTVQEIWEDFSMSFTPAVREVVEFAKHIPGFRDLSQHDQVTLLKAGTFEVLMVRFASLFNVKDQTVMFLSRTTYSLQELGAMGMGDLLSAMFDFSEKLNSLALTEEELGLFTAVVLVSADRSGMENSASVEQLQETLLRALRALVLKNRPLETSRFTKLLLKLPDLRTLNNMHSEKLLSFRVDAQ
How it was run: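 Six-point dose-response, 18 h, 37 °C, serum-free, in HEK293 cells carrying a Gal4-RE luciferase reporter with Gal4-Rev-Erb alpha or beta plus VP16-NCoR (corepressor interaction readout). EC50 and TOP activation (%) derived from luminescence across four experiments.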

| SMILES | melting point | EC50 (Rev-Erb alpha) | Emax (Rev-Erb alpha; relative to DMSO, at the tested dose, read-out: TOP activation) |
| --- | --- | --- | --- |
| COc1ccc(-c2ccccc2Oc2ccc3nnc(Cl)n3n2)cc1 [Cpd.4-22, 6-(4′-methoxy-biphenyl-2-yloxy)-3-chloro-[1,2,4]triazolo[4,3-b]pyridazine] | 138.1 °C | 100 to 1000 nM |  |
| CC(C)N(Cc1ccc(Oc2ccc3nnc(Cl)n3n2)c(-c2ccccc2)c1)C(C)C [Cpd.4-166, 3-chloro-6-(5-(diisopropylaminomethyl)biphenyl-2-yloxy)-[1,2,4]triazolo[4,3-b]pyridazine] | 59.1 °C | 1000 to 6000 nM |  |
| FC(F)(F)Oc1ccc(-c2ccccc2)c(Oc2ccc3nnc(Cl)n3n2)c1 [Cpd.4-68, 3-chloro-6-(4-trifluoromethyloxy-biphenyl-2-yloxy)-[1,2,4]triazolo[4,3-b]pyridazine] | 225.4 to 228.2 °C | 100 to 1000 nM |  |
| COc1ccccc1-c1cccc(Oc2ccc3nnc(Cl)n3n2)c1 [Cpd.3-8, 6-(2′-methoxy-biphenyl-3-yloxy)-3-chloro-[1,2,4]triazolo[4,3-b]pyridazine] | 82.5 °C | 1000 to 6000 nM |  |
| CCc1nnc2cc(C)c(Oc3cc(C(F)(F)F)ccc3-c3cncnc3)nn12 [Cpd.5-43, 3-ethyl-7-methyl-6-(2-(pyrimidin-5-yl)-5-(trifluoromethyl)phenoxy)-[1,2,4]triazolo[4,3-b]pyridazine] | 149 to 150 °C | 1000 to 6000 nM |  |
| COC(=O)CCNc1ccc(Oc2ccc3nnc(Cl)n3n2)c(-c2ccccc2)c1 [Cpd.4-190, 3-chloro-6-(5-methyloxycarbonylethylamino-biphenyl-2-yloxy)-[1,2,4]triazolo[4,3-b]pyridazine] | 52 to 57 °C | 1000 to 6000 nM |  |
| Clc1nnc2ccc(Oc3ccc(CNCC4CCCCC4)cc3-c3ccccc3)nn12 [Cpd.4-162, 3-chloro-6-(5-((cyclohexylmethyl)aminomethyl)biphenyl-2-yloxy)-[1,2,4]triazolo[4,3-b]pyridazine] | 53.4 to 55.7 °C | 1000 to 6000 nM |  |
| CCOc1ccc(Oc2ccc3nnc(Cl)n3n2)c(-c2ccccc2)c1 [Cpd.4-139, 3-chloro-6-(5-ethoxybiphenyl-2-yloxy)-[1,2,4]triazolo[4,3-b]pyridazine] | 89.7 to 90.8 °C | 100 to 1000 nM |  |
| Clc1cccc(-c2cccc(Oc3ccc4nnc(Cl)n4n3)c2)c1 [Cpd.3-13, 3-chloro-6-(3′-chlorobiphenyl-3-yloxy)-[1,2,4]triazolo[4,3-b]pyridazine] | 77.5 to 123.8 °C | 100 to 1000 nM |  |
| Fc1ccc(Oc2ccc3nnc(Cl)n3n2)c(-c2ccc(Cl)cc2)c1 [Cpd.4-118, 3-chloro-6-(4′-chloro-5-fluorobiphenyl-2-yloxy)-[1,2,4]triazolo[4,3-b]pyridazine] | 172 °C | 100 to 1000 nM |  |
| COc1ncc(C(F)(F)F)cc1-c1ccc(C(F)(F)F)cc1Oc1nn2c(Cl)nnc2cc1C [Cpd.5-26, 3-chloro-7-methyl-6-((2-(2-methoxy-5-(trifluoromethyl)pyridin-3-yl))-5-(trifluoromethyl)phenoxy)-[1,2,4]triazolo[4,3-b]pyridazine] | 194 to 196 °C | 1000 to 6000 nM |  |
| Nc1cccc(-c2cc(F)ccc2Oc2ccc3nnc(Cl)n3n2)c1 [Cpd.4-119, 3-chloro-6-(3′-amino-5-fluorobiphenyl-2-yloxy)-[1,2,4]triazolo[4,3-b]pyridazine] | 248.2 °C | 1000 to 6000 nM |  |
| COc1cccc(-c2cc(F)c(F)cc2Oc2ccc3nnc(Cl)n3n2)c1 [Cpd.4-152, 3-chloro-6-(4,5-difluoro-3′-methoxybiphenyl-2-yloxy)-[1,2,4]triazolo[4,3-b]pyridazine] | 102 °C | 1000 to 6000 nM |  |
| Clc1ccccc1-c1ccccc1Oc1ccc2nnc(Cl)n2n1 [Cpd.4-25, 6-(2′-chloro-biphenyl-2-yloxy)-3-chloro-[1,2,4]triazolo[4,3-b]pyridazine] | 81.9 °C | < 100 nM |  |
| Fc1ccc(-c2ccc(F)cc2Oc2ccc3nnc(Cl)n3n2)cc1 [Cpd.4-31, 6-(4′-fluoro-4-fluoro-biphenyl-2-yloxy)-3-chloro-[1,2,4]triazolo[4,3-b]pyridazine] | 129.7 °C | 100 to 1000 nM |  |
| FC(F)(F)c1ccc(-c2ccccc2)c(Oc2ccc3nnc(Cl)n3n2)c1 [Cpd.4-33, 6-(4-trifluoromethyl-biphenyl-2-yloxy)-3-chloro-[1,2,4]triazolo[4,3-b]pyridazine] | 138.9 °C | < 100 nM |  |
| NC(=O)c1ccc(Oc2ccc3nnc(Cl)n3n2)c(-c2ccccc2)c1 [Cpd.4-70, 3-chloro-6-(5-aminocarbonyl-biphenyl-2-yloxy)-[1,2,4]triazolo[4,3-b]pyridazine] | 196.5 to 198.4 °C | > 6000 nM | > 130% |
| Clc1ccc(Oc2nn3c(Cl)nnc3c3ccccc23)c(-c2cncnc2)c1 [Cpd.5-60, 3-chloro-6-(4-chloro-2-(pyrimidin-5-yl)phenoxy)-[1,2,4]triazolo[3,4-a]phthalazine] | 252 to 253 °C | 100 to 1000 nM |  |
| Oc1cccc(-c2ccc(C(F)(F)F)cc2Oc2ccc3nnc(C(F)(F)F)n3n2)c1 [Cpd.4-138, 3-(trifluoromethyl)-6-(3′-hydroxy-4-(trifluoromethyl)biphenyl-2-yloxy)-[1,2,4]triazolo[4,3-b]pyridazine] | 195 °C | 1000 to 6000 nM |  |
| Cc1ccc(Oc2ccc3nnc(Cl)n3n2)c(-c2ccccc2)c1 [Cpd.4-27, 6-(5-methyl-biphenyl-2-yloxy)-3-chloro-[1,2,4]triazolo[4,3-b]pyridazine] | 144.5 °C | < 100 nM |  |
| COc1ncc(C)cc1-c1ccc(C(F)(F)F)cc1Oc1cc(C)c2nnc(Cl)n2n1 [Cpd.5-27, 3-chloro-8-methyl-6-((2-(2-methoxy-5-methylpyridin-3-yl))-5-(trifluoromethyl)phenoxy)-[1,2,4]triazolo[4,3-b]pyridazine] | 117 to 119 °C | 1000 to 6000 nM |  |
| COc1cccc(-c2cc(F)c(F)cc2Oc2ccc3nnc(C(F)(F)F)n3n2)c1 [Cpd.4-150, 3-(trifluoromethyl)-6-(4,5-difluoro-3′-methoxybiphenyl-2-yloxy)-[1,2,4]triazolo[4,3-b]pyridazine] | 52 to 55 °C | 1000 to 6000 nM |  |
| O=C(c1ccccc1)c1cc(Br)ccc1Oc1ccc2nnc(Cl)n2n1 [Cpd.4-145, 3-chloro-6-(4-bromo-2-benzoyl-phenoxy)-[1,2,4]triazolo[4,3-b]pyridazine] | 135 to 137 °C | 1000 to 6000 nM |  |
| COc1ncc(F)cc1-c1ccc(C(F)(F)F)cc1Oc1ccc2nnc(Cl)n2n1 [Cpd.4-131, 3-chloro-6-((2-(2-methoxy-5-fluoropyridin-3-yl))-5-(trifluoromethyl)phenoxy)-[1,2,4]triazolo[4,3-b]pyridazine] | 60 to 68 °C | 100 to 1000 nM |  |
| Fc1ccc(Oc2ccc3nnc(C(F)(F)F)n3n2)c(-c2ccccc2)c1 [Cpd.4-141, 3-(trifluoromethyl)-6-(5-fluorobiphenyl-2-yloxy)-[1,2,4]triazolo[4,3-b]pyridazine] | 85.3 to 87.7 °C | 1000 to 6000 nM |  |
| Cc1cc(Oc2cc(C(F)(F)F)ccc2-c2cncnc2)nn2c(C(F)(F)F)nnc12 [Cpd.5-63, 8-methyl-6-(2-(pyrimidin-5-yl)-5-(trifluoromethyl)phenoxy)-3-(trifluoromethyl)-[1,2,4]triazolo[4,3-b]pyridazine] | 167 to 172 °C | 1000 to 6000 nM |  |
| COc1nccc(C)c1-c1ccc(C(F)(F)F)cc1Oc1cc(C)c2nnc(Cl)n2n1 [Cpd.5-39, 3-chloro-8-methyl-6-((2-(2-methoxy-4-methylpyridin-3-yl))-5-(trifluoromethyl)phenoxy)-[1,2,4]triazolo[4,3-b]pyridazine] | 139 to 141 °C | 1000 to 6000 nM |  |
| Fc1cccc(-c2ccc(F)cc2Oc2ccc3nnc(Cl)n3n2)c1 [Cpd.4-30, 6-(3′-fluoro-4-fluoro-biphenyl-2-yloxy)-3-chloro-[1,2,4]triazolo[4,3-b]pyridazine] | 123.4 °C | 100 to 1000 nM |  |
| Cc1cc(Oc2cc(C(F)(F)F)ccc2-c2ccccc2)nn2c(Cl)nnc12 [Cpd.5-6, 3-chloro-8-methyl-6-(4-trifluoromethyl-biphenyl-2-yloxy)-[1,2,4]triazolo[4,3-b]pyridazine] | 169 to 172 °C | < 100 nM |  |
| CCc1cc(Oc2cc(C(F)(F)F)ccc2-c2ccccc2)nn2c(Cl)nnc12 [Cpd.5-13, 3-chloro-8-ethyl-6-(4-trifluoromethyl-biphenyl-2-yloxy)-[1,2,4]triazolo[4,3-b]pyridazine] | 139.5 to 141.8 °C | 100 to 1000 nM |  |
